One block for each compound: values may come before it.
Experiments:
Format in all cases: physicochemical
[1] = Solubility in CO2 by cloud point determination in a variable volume view cell; parameters: Pressure Describing Cloud Point Determinations For Surfactant/CO2 Concentrations / Pressure Describing Cloud Point Determinations For Surfactant/CO2Concentrations: unit not given here
Experimental: In the following examples, mixtures of acetylenic alcohols or diols and CO2 were prepared by adding the acetylenic alcohol or diol to a stainless steel variable volume view cell equiped with suitable relief devices, high pressure valves CO2 inlet and outlet and a sapphire window at one end. A high pressure syringe pump (High Pressure Products, HIP pump) was filled with liquid CO2 and used to quantitiatively add CO2 to the pressure vessel. The pressure vessel contained a magnetic stirrer and was stirred via a magnetic couple to a magnet located below the vessel.
A weighed amount of surfactant (0.5-10 weight %) was placed inside the cell chamber in front of the piston. The cell window was attached and 10 cc ? s of CO2, was added to the cell. The surfactant was mixed in the CO2 using a magnetic stirring bar. The cell was mounted in horizontally and then immersed in a water bath. After allowing the high pressure cell to attain thermal equilibrium the pressure within the cell was varied using a floating piston. The pressure was changed to monitor the cloud point as being indicative of insolubility. The operator viewed the floating piston through the sapphire window using a suitable optic device, the onset of insolubility was taken when the translucent solution changed to an orange/brown color due to the Tindall light scattering of the insoluble droplets. The onset of insolubility was checked several times by varying the pressure using the high pressure syringe pump.
A water bath was used to vary the temperature for each concentration. On completing the solubility studies at one concentration and one temperature series, a calibrated injector loop attached to the high pressure cell was filled with the surfactant via a syringe. Utilizing a six way valve to help inject this fixed amount of surfactant, the surfactant concentration within the high pressure cell was increased by a fixed increment. The solubility studies for this new CO2/surfactant concentration were measured at various temperatures in a similar manner to that previously described.

[2] = Interfacial tension of a PEG 600 drop in CO2/surfactant solution via pendant drop technique; conditions: for Interfacial Tension IFT: PEG (600) drop, 2 weight % Surfynol/CO2 solution
Excerpt: Interfacial activity can be monitored using the 'pendant drop' technique, ("Chemistry of Interfaces" M.J.Jaycock & Parfitt, John Wiley and Sons, New York p49-51). This method is utilized to measure the interfacial tension between a pendant drop and a continuous phase that surrounds the drop. When carbon dioxide is used as the continuous media, special high pressure equipment with sapphire view ports is required to maintain a solution of CO2 and surfactant, and to study the change in shape of the pendant drop for interfacial tension calculations. A general procedure for these high pressure phase behavior measurements may be found in Langmuir, vol. 10 1994, pg 3536-3541, by K. Harrison, K. P. Johnston, J. Goveas and E. A. O ? Rear.
Various ethoxylates of 2,4,7,9-tetramethyl-5-decyn-4,7-diol were used in the interfacial tension study. Table 3 gives the interfacial tension observed for ethoxylates of 2,4,7,9-tetramethyl-5-decyn-4,7-diol containing 20, 40, and 65 wt% ethylene oxide. The table also gives the interfacial tension of the polyethyleneglycol (PEG 600)drop within the pure CO2 media. […] It is interesting to note the actual reduction in interfacial tension. For a control PEG 600 drop at 2510 psi the interfacial tension was measured to be 3.39 dyne/cm (run #5in Table 3). […] This corresponds to lowering the interfacial tension by 0.54 dyne/cm, a 16% reduction. A surfactant/CO2 solution of 2 weight % (using the 40 wt% ethoxylated Surfynol surfactant) gave an interfacial tension of 1.57 dyne/cm. at a CO2 pressure of 4030 psi (run #33in Table 3). The corresponding PEG drop at 4093psi used as the control gave an interfacial tension of 1.92dyne/cm (run #18 in Table 3).

[3] = PEG (MW=600) uptake by surfactant/CO2 mixture (phase behavior, cloud point); conditions: Wt% Surfactant in CO2 0.897%
[4] = 2 weight % in CO2 at 2501 psi vs control PEG 600 drop at 2510 psi

Pressure Describing Cloud Point Determinations For Surfactant/CO2Concentrations ([1]; Surfactant Concn. in CO2 0.6159 wt%, 25°C): 1200 | Pressure Describing Cloud Point Determinations For Surfactant/CO2Concentrations ([1]; Surfactant Concn. in CO2 0.6159 wt%, 45°C): 1750 | Pressure Describing Cloud Point Determinations For Surfactant/CO2Concentrations ([1]; Surfactant Concn. in CO2 1.2484 wt%, 25°C): 1840 | Pressure Describing Cloud Point Determinations For Surfactant/CO2Concentrations ([1]; Surfactant Concn. in CO2 1.2484 wt%, 35°C): 2610 | Pressure Describing Cloud Point Determinations For Surfactant/CO2Concentrations ([1]; Surfactant Concn. in CO2 1.8749 wt%, 60°C): 3740 | Pressure Describing Cloud Point Determinations For Surfactant/CO2Concentrations ([1]; Surfactant Concn. in CO2 2.8386 wt%, 25°C): 2580 | Pressure Describing Cloud Point Determinations For Surfactant/CO2Concentrations ([1]; Surfactant Concn. in CO2 2.8386 wt%, 45°C): 4300 | Pressure Describing Cloud Point Determinations For Surfactant/CO2Concentrations ([1]; Surfactant Concn. in CO2 2.8386 wt%, 60°C): 4510 | Pressure Describing Cloud Point Determinations For Surfactant/CO2Concentrations ([1]; Surfactant Concn. in CO2 4.0446 wt%, 25°C): 2700 | Pressure Describing Cloud Point Determinations For Surfactant/CO2Concentrations ([1]; Surfactant Concn. in CO2 4.0446 wt%, 35°C): 3740 | Pressure Describing Cloud Point Determinations For Surfactant/CO2Concentrations ([1]; Surfactant Concn. in CO2 4.0446 wt%, 45°C): 4440 | Pressure Describing Cloud Point Determinations For Surfactant/CO2Concentrations ([1]; Surfactant Concn. in CO2 4.0446 wt%, 60°C): 4670 | reduction in interfacial tension ([2]; 2 weight % in CO2 at 4030 psi vs control PEG drop at 4093psi): 18.2% | Interfacial Tension IFT ([2]; 3146 psi (217 bar)): 2.04 dyne/cm | Interfacial Tension IFT ([2]; 3522 psi (243 bar)): 1.96 dyne/cm | Interfacial Tension IFT ([2]; 3536 psi (244 bar)): 1.93 dyne/cm | Interfacial Tension IFT ([2]; 4028 psi (278 bar)): 1.56 dyne/cm | Interfacial Tension IFT ([2]; 4030 psi (278 bar)): 1.57 dyne/cm | Interfacial Tension IFT ([2]; 4568 psi (315 bar)): 1.38 dyne/cm | Interfacial Tension IFT ([2]; 4592 psi (317 bar)): 1.35 dyne/cm | Wt% of PEG (MW=600) uptake ([3]; 4040 psi 25°C): 1.091% | Wt% of PEG (MW=600) uptake ([3]; 4550 psi 25°C): 1.360% | Wt% of PEG (MW=600) uptake ([3]; 5220 psi 25°C): 1.627%
Compound: Ethoxylated 2,4,7,9-Tetramethyl-5-decyn-4,7-diol [AP-440]

Pressure Describing Cloud Point Determinations For Surfactant/CO2 Concentrations ([1]; Surfactant Concn. in CO2 0.50 wt%, 35°C): 1480 | Pressure Describing Cloud Point Determinations For Surfactant/CO2 Concentrations ([1]; Surfactant Concn. in CO2 0.50 wt%, 45°C): 1800 | Pressure Describing Cloud Point Determinations For Surfactant/CO2 Concentrations ([1]; Surfactant Concn. in CO2 0.50 wt%, 55°C): 2200 | Pressure Describing Cloud Point Determinations For Surfactant/CO2 Concentrations ([1]; Surfactant Concn. in CO2 1.50 wt%, 35°C): 1530 | Pressure Describing Cloud Point Determinations For Surfactant/CO2 Concentrations ([1]; Surfactant Concn. in CO2 1.50 wt%, 45°C): 1900 | Pressure Describing Cloud Point Determinations For Surfactant/CO2 Concentrations ([1]; Surfactant Concn. in CO2 1.50 wt%, 55°C): 2260 | Pressure Describing Cloud Point Determinations For Surfactant/CO2 Concentrations ([1]; Surfactant Concn. in CO2 2.50 wt%, 35°C): 1500 | Pressure Describing Cloud Point Determinations For Surfactant/CO2 Concentrations ([1]; Surfactant Concn. in CO2 2.50 wt%, 45°C): 1860 | Pressure Describing Cloud Point Determinations For Surfactant/CO2 Concentrations ([1]; Surfactant Concn. in CO2 2.50 wt%, 55°C): 2210 | Pressure Describing Cloud Point Determinations For Surfactant/CO2 Concentrations ([1]; Surfactant Concn. in CO2 5.00 wt%, 35°C): 1380 | Pressure Describing Cloud Point Determinations For Surfactant/CO2 Concentrations ([1]; Surfactant Concn. in CO2 5.00 wt%, 45°C): 1770 | Pressure Describing Cloud Point Determinations For Surfactant/CO2 Concentrations ([1]; Surfactant Concn. in CO2 5.00 wt%, 55°C): 2120 | Pressure Describing Cloud Point Determinations For Surfactant/CO2 Concentrations ([1]; Surfactant Concn. in CO2 7.60 wt%, 35°C): 1280 | Pressure Describing Cloud Point Determinations For Surfactant/CO2 Concentrations ([1]; Surfactant Concn. in CO2 7.60 wt%, 45°C): 1680 | Pressure Describing Cloud Point Determinations For Surfactant/CO2 Concentrations ([1]; Surfactant Concn. in CO2 7.60 wt%, 55°C): 2030 | Pressure Describing Cloud Point Determinations For Surfactant/CO2 Concentrations ([1]; Surfactant Concn. in CO2 10.20 wt%, 35°C): 1200 | Pressure Describing Cloud Point Determinations For Surfactant/CO2 Concentrations ([1]; Surfactant Concn. in CO2 10.20 wt%, 45°C): 1590 | Pressure Describing Cloud Point Determinations For Surfactant/CO2 Concentrations ([1]; Surfactant Concn. in CO2 10.20 wt%, 55°C): 1950 | solubility levels by weight to CO2 ([1]; in CO2): 10.2 % by weight
Compound: C#CC(C)(O)CC(C)C (stereo not drawn) [3,5-dimethyl-1-hexyn-3-ol]

Pressure Describing Cloud Point Determinations For Surfactant/CO2Concentrations ([1]; Surfactant Concn. in CO2 1.3646 wt%, 25°C): 1410 | Pressure Describing Cloud Point Determinations For Surfactant/CO2Concentrations ([1]; Surfactant Concn. in CO2 1.3646 wt%, 35°C): 2040 | Pressure Describing Cloud Point Determinations For Surfactant/CO2Concentrations ([1]; Surfactant Concn. in CO2 1.3646 wt%, 60°C): 3060 | Pressure Describing Cloud Point Determinations For Surfactant/CO2Concentrations ([1]; Surfactant Concn. in CO2 2.6028 wt%, 35°C): 2710 | Pressure Describing Cloud Point Determinations For Surfactant/CO2Concentrations ([1]; Surfactant Concn. in CO2 2.6028 wt%, 60°C): 4040 | Pressure Describing Cloud Point Determinations For Surfactant/CO2Concentrations ([1]; Surfactant Concn. in CO2 2.6028 wt%, 65°C): 4330 | Pressure Describing Cloud Point Determinations For Surfactant/CO2Concentrations ([1]; Surfactant Concn. in CO2 3.2104 wt%, 35°C): 2990 | Pressure Describing Cloud Point Determinations For Surfactant/CO2Concentrations ([1]; Surfactant Concn. in CO2 3.2104 wt%, 60°C): 3950 | Pressure Describing Cloud Point Determinations For Surfactant/CO2Concentrations ([1]; Surfactant Concn. in CO2 3.2104 wt%, 65°C): 4330 | Pressure Describing Cloud Point Determinations For Surfactant/CO2Concentrations ([1]; Surfactant Concn. in CO2 3.8330 wt%, 25°C): 1870 | Pressure Describing Cloud Point Determinations For Surfactant/CO2Concentrations ([1]; Surfactant Concn. in CO2 3.8330 wt%, 45°C): 2860 | Pressure Describing Cloud Point Determinations For Surfactant/CO2Concentrations ([1]; Surfactant Concn. in CO2 3.8330 wt%, 65°C): 3770 | surfactant is soluble in CO2 ([1]; in CO2): up to 4 wt% | lowering the interfacial tension [2, 4]: 0.54 dyne/cm | reduction in interfacial tension [2, 4]: 16% | Interfacial Tension IFT ([2]; 1984 psi (137 bar)): 3.45 dyne/cm | Interfacial Tension IFT ([2]; 2140 psi (148 bar)): 3.05 dyne/cm | Interfacial Tension IFT ([2]; 2498 psi (172 bar)): 2.75 dyne/cm | Interfacial Tension IFT ([2]; 2501 psi (173 bar)): 2.85 dyne/cm | Interfacial Tension IFT ([2]; 3007 psi (207 bar)): 2.32 dyne/cm | Interfacial Tension IFT ([2]; 3574 psi (246 bar)): 1.83 dyne/cm
Compound: Ethoxylated 2,4,7,9-Tetramethyl-5-decyn-4,7-diol [AP-420]

From patent EP0830890A1, “Surfactants for use in liquid/supercritical CO2” (AIR PRODUCTS AND CHEMICALS, INC., priority 1996, dated 1998)
